Columns and labels:
Type in all cases: cell-based
[1] = tested on: HT1080 (human fibrosarcoma cell line); assay: RT-CES system cell proliferation/cytotoxicity IC50, HT1080; details: HT-1080, time point of maximum inhibition
Text: (§1) The RT-CES system comprises three components, an electronic sensor analyzer, a device station and 16× or 96× microtiter plate devices. Microelectrode sensor array was fabricated on glass slides with lithographical microfabrication methods and the electrode-containing slides are assembled to plastic trays to form electrode-containing wells. Each 16× (or 96×) microtiter plate device used in RT-CES system comprises up to 16 (or 96) such electrode-containing wells. The device station receives the 16× or 96× microtiter plate devices and is capable of electronically switching any one of the wells to the sensor analyzer for impedance measurement. In operation, the devices with cells cultured in the wells are placed into a device station that is located inside an incubator. Electrical cables connect the device station to the sensor analyzer. Under the RT-CES software control, the sensor analyzer can automatically select wells to be measured and continuously conduct impedance measurements. The impedance data from the analyzer is transferred to a computer, analyzed and processed by the integrated software.
(§2) To quantify cell status based on the measured cell-electrode impedance, a parameter termed Cell Index is derived, according to
(§3) [formula] where Rb(f) and Rcell(f) are the frequency dependent electrode resistances (a component of impedance) without cells or with cell present, respectively. N is the number of the frequency points at which the impedance is measured. Thus, Cell Index is a quantitative measure of the status of the cells in an electrode-containing well. Under the same physiological conditions, more cells attached on to the electrodes leads to larger Rcell(f) value, leading to a larger value for Cell Index. Furthermore, for the same number of cells present in the well, a change in the cell status such as morphology will lead to a change in the Cell Index. For example, an increase in cell adhesion or cell spreading leads to larger cell-electrode contact area which will lead to an increase in Rcell(f) and thus a larger value for Cell Index. The Cell Index may also be calculated using a formula different from the one described here. Other methods for calculating the Cell Index based on impedance measurement can be found in PCT application number PCT/US04/37696, fined on Nov. 12, 2004, PCT application number PCT/US05/04481, filed on Feb. 9, 2005, U.S. patent application Ser. No. 10/987,732, filed on Nov. 12, 2004, and U.S. patent application Ser. No. 11/055,639, filed on Feb. 9, 2005.
HT1080 cells (human fibrosarcoma cells) were seeded into wells of 16× or 96× microtiter plate devices (electronic plates, i.e., the plates comprise microelectrode sensor arrays in the wells of the plate) with an initial seeding density of 4,000 cells per well and were pre-incubated in incubator under standard cell culture conditions for about 18.6 hrs. Dibenzyl trisulfide solution in DMSO was added into wells following the incubation period. The cell status was monitored prior to and after the compound addition using RT-CES system. The cell indexes of different wells were between 0.72 and 1.45 just before the compound addition. […] The cell index was normalized against the cell index values at a time point just after compound addition (about 20 hrs after cell seeding).
(§4) For the assay performed on the RT-CES system, the cells were seeded into the 16× or 96× microtiter plate devices (electronic plates, i.e., the plates comprise microelectrode sensor arrays in the wells of the plate) at the seeding density ranging from 5000 cells/well to 15,000 cells/well. The cells were incubated at 5% CO2 and 37° C. for overnight till the cell indices reached the growth phase where the cell index was between 0.8 and 1.2. Serially diluted compounds were then added to the cells followed by dynamic monitoring of the effect of the compounds on the cell proliferation and cytotoxicity. […]

[2] = tested on: MCF7 (human breast cancer cell line); assay: RT-CES system cell proliferation/cytotoxicity IC50, MCF7; details: time point of maximum inhibition
Text: as §1, §2, §3
MCF-7 cells (human breast cancer cells) were seeded into wells of 16× or 96× microtiter plate devices (electronic plates, i.e., the plates comprise microelectrode sensor arrays in the wells of the plate) with an initial seeding density of 10,000 cells per well and were pre-incubated in incubator under standard cell culture conditions for about 44 hrs. Dibenzyl trisulfide solution in DMSO was added into wells following the incubation period. The cell status was monitored prior to and after the compound addition using RT-CES system. The cell indexes of different wells were between 1.2 and 1.5 just before the compound addition. […] The cell index was normalized against the cell index values at a time point just after compound addition (about 44.5 hrs after cell seeding).
as §4

[3] = tested on: MDA-MB231 (M231, human breast cancer cell line); assay: MTT assay IC50 (48 h), MDA-MB231; details: MDA-MB-231, M231, 48 hours
Procedure: (§5) In another assay format, a test compound is assayed for its cytotoxicity and/or cytostatic effect on certain cancer cell types, using endpoint assay methods. Cells in the NCI cancer cell panel may be used. Cells after a pre-incubation for certain length of time (for example, 8 hrs or 24 hrs) are incubated with a test compound at serially-diluted concentrations (for example, five 10-fold dilutions) for 24 hrs and/or 48 hrs, and/or other specific length of time. The dose dependent cytotoxicity and/or cytostatic effects of test compounds can then be tested and evaluated using the 3-(4,5-dimethylthiazol-2-yl)-2,5-diphenyltetrazolium bromide (MTT) assay method, as described by, for example, Boyd (In Principle of Practice of Oncology, Devita, J. T., Hellman, S. and Rosenberg S. A. (Eds), 1989, Vol, 3, PPO Update, No. 10).
(§6) The anticancer potency of DBTS and its derivatives were tested in 8 different types of human cancer cell lines using the RT-CES system and MTT assay. The 8 cancer cell lines were HT1080 (the human fibrosarcoma cell line), H460 (human non small cell lung cancer cell line), OVCAR4 (the human ovarian cancer cell line), MCF7 (human breast cancer cell line) MDA-MB231 (M231, the human breast cancer cell line) A2780 (the human […] cancer cell line) Jurkat (the human T cell leukemia cell line). The test DBTS derivatives include ACEA100107, ACEA100108, ACEA100109, ACEA100111, ACEA100115, ACEA100116, ACEA100117, ACEA100118, ACEA100119, and ACEA100120.
(§7) For the MTT assay, the cells were seeded into the regular 96× well plates at the cell seeding density ranging from 5000 cells/well to 15,000 cells/well. The cells were incubated at 5% CO2 and 37° C. for overnight. The derivatives were serially diluted and added to the cells. The treatment was terminated after 48 hours of incubation by adding MTT staining reagent. After 4 hours, the staining was stopped by the stop buffer and then the calorimetric measurement was carried out on a microtiter plate reader at dual wave length, 650 nm and 550 nm.

[4] = tested on: Jurkat (human T cell leukemia cell line); assay: MTT assay IC50 (48 h), Jurkat
Procedure: as §5, §6, §7

[5] = tested on: HepG2 cells; assay: MTT assay IC50 (48 h), HepG2 (eighth cell line not given); details: Homo sapiens; HepG2, 48 hours
Procedure: as §5, §6, §7

| Compound | IC50 [3] | IC50 [4] | IC50 [5] | IC50 [1] | IC50 [2] |
| --- | --- | --- | --- | --- | --- |
| Fc1ccc(CSSSCc2ccc(F)cc2)cc1 [ACEA100108, Di(p-fluorobenzyl)trisulfide] | 4400 nM | 350 nM | > 50000 nM | 1.3 µM | 2.15 µM |
| c1ccc(CSSSCc2ccccc2)cc1 [DBTS, Dibenzyl trisulfide] | 2400 nM | 350 nM | > 50000 nM | 2.2 µM | 6.6 µM |
| Clc1ccccc1CSSSCc1ccccc1Cl [ACEA100115, Di(o-chlorobenzyl)trisulfide] | 3100 nM | 510 nM | > 50000 nM | 2.2 µM | 7.8 µM |

More lines, main results first:

| IC50 [3] | IC50 [4] | IC50 [5] | Compound | IC50 [1] | IC50 [2] |
| --- | --- | --- | --- | --- | --- |
| 650 nM | 300 nM | > 50000 nM | Cc1cccc(CSSSCc2cccc(C)c2)c1 [ACEA100116, di(m-methylbenzyl)trisulfide] | 1.9 µM | 2.75 µM |
| 14900 nM | 8000 nM | > 50000 nM | FC(F)(F)c1cccc(CSSSCc2cccc(C(F)(F)F)c2)c1 [ACEA100117, Di(m-trifluoromethylbenzyl)trisulfide] | 27.5 µM | 48.8 µM |
| 1200 nM | 500 nM | > 50000 nM | Clc1ccc(CSSSCc2ccc(Cl)cc2)cc1 [ACEA100118, Di(p-chlorobenzyl)trisulfide] | 1.2 µM | 4.4 µM |
